How the values were obtained:
[1] = target: T1, P-gp (Homo sapiens, UniProt P08183); test: Transwell assay, MDCKII cells stably expressing P-gp; type: cell-based; conditions: 100 µmol/L doxorubicin; MDCKII-P-gp on Transwell
T1 construct: expressed in transfected cells; host or cells: MDCKII
Protocol: In brief, MDCKII cells stably expressing P-gp or BCRP were seeded on 0.4 µm Transwell® membrane inserts (200.000 cells/insert; Ø6.5 mm, growth area 0.33 cm2) and allowed to differentiate for five days. The integrity of the monolayer was confirmed by monitoring the trans-epithelial electrical resistance (TEER) using the EVOMX system (WPI, Sarasota, FL, USA). […] Every 30 min, the incubation buffer was removed from the receiver compartment and replaced by a freshly preheated buffer for a total time of 2.5 h.

[2] = tested on: HEK293 cells expressing OATP1A2*1, *2, *3; conditions: OATP1A2 transfected cells; 100 µmol/L doxorubicin, 72 h; versus DMSO
Protocol: (§1) Resazurin-Assay: To determine cell viability, cells were seeded at a density of 10,000 cells/well in 96-well multiplates. […] Afterward, 100 µL from each well was placed in a cavity of a 96-well plate, and the fluorescence was determined on a microplate reader (TECAN infinite M200, Tecan GmbH, Crailsheim, Germany) at an excitation wavelength of 530 nm and an emission wavelength of 590 nm.

[3] = tested on: breast cancer cell lines MCF-7, MDA-MB-231, ZR-75-1; test: Resazurin cell viability assay in breast cancer cell lines; conditions: 100 µmol/L doxorubicin, 72 h, versus DMSO
Protocol: as §1

[4] = tested on: transfected cell lines and tumorous cell lines; test: Short-term cytotoxicity check (Presto Blue cell viability assay); type: cell-based; conditions: concentrations tested (100 µmol/L), data not shown
[5] = target: T2, OCT1 (Homo sapiens, UniProt O15245); conditions: MDCKII-OCT1; doxorubicin 0–100 µmol/L; 3 min; mean ± SD
T2 sequence (O15245 1-554): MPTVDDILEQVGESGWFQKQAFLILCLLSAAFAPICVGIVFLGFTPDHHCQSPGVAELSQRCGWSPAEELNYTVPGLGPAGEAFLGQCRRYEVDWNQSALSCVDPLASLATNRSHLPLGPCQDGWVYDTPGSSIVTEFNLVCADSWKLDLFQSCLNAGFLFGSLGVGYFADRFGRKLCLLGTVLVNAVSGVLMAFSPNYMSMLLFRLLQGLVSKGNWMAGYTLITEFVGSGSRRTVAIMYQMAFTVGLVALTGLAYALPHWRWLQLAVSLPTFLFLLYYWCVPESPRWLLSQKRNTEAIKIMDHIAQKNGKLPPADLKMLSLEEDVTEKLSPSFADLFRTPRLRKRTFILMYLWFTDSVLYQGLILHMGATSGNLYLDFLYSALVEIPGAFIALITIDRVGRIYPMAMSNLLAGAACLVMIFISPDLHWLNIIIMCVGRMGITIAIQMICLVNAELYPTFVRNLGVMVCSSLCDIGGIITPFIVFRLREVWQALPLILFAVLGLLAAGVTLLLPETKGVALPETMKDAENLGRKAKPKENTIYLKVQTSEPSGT
Protocol: (§2) Cellular uptake studies: For all transport studies, cells were seeded in 24-well plates and incubated in a full growth medium at an initial density of 200,000 cells/well for 3 days. Before starting each transport experiment, cells were washed with a pre-warmed (37 °C) incubation buffer [64]. […] Protein concentration of whole cell lysate was determined to quantify cell density after each experiment using the BCA assay according to the manufacturer’s instructions (Pierce, Rockford, IL, USA).
(§3) Statistical evaluation: All experiments were performed at least three times unless otherwise noted. The OATP1A2*1–*3 and OCT1-3 net uptake was obtained by subtracting the uptake into wild-type cells from that of the transporter-transfected cells. Km and Vmax were assessed using Prism 5.01 (GraphPad Software, San Diego, CA, USA). The differences in the doxorubcin uptake in OATP1A2*1–*3 and in OCT1-3 transfected cells were adjusted to the membranous transporter protein levels in the whole cell lysate. Km and Vmax are presented as arithmetic means ± standard deviation.

[6] = pH 7.4; cited from earlier work
[7] = target: T3, OCT2 (Homo sapiens, UniProt O15244); test: in vitro; conditions: mdck
T3 sequence (O15244 1-555): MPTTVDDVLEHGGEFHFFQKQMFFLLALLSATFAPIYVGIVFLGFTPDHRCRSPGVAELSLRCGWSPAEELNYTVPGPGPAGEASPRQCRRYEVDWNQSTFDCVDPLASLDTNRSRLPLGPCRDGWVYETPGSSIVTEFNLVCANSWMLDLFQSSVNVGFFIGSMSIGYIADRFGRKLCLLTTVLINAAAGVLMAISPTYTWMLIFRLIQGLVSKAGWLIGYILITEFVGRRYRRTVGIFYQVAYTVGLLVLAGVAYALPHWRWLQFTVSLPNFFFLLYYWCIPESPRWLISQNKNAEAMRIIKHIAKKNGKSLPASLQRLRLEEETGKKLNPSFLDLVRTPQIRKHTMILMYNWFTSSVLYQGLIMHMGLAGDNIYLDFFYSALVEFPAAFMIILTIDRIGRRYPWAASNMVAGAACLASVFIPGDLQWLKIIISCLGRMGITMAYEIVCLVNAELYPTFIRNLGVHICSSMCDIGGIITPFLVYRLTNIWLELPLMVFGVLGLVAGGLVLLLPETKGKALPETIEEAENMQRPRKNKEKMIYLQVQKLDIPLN
Protocol: as §2, §3

[8] = tested on: OATP1A2; conditions: transiently transfected HeLa cells, ref 22 (Lee et al.); cited from earlier work
[9] = tested on: OCT6; conditions: OCT6 affinity to doxorubicin; cited from earlier work
[10] = target: T4, OCT3 (Homo sapiens, UniProt O75751); test: Doxorubicin uptake into MDCKII cells stably expressing OCT3
T4 sequence (O75751 1-556): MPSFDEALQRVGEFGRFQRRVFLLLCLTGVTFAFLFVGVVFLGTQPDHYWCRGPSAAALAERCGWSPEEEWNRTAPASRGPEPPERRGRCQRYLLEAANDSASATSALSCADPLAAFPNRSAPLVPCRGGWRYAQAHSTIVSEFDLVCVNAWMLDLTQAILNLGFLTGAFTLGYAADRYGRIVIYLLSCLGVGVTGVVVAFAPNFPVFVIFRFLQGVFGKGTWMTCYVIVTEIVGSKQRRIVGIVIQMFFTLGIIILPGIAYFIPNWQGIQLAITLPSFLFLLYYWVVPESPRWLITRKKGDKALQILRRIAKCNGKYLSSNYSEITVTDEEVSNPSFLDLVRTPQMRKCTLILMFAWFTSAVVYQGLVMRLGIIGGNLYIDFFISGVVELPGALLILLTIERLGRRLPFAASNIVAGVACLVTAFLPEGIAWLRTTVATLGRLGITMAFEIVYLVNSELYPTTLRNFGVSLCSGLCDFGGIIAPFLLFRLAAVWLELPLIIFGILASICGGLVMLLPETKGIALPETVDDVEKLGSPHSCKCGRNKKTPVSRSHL
Protocol: as §2, §3

T1 sequence (P08183 whole entry): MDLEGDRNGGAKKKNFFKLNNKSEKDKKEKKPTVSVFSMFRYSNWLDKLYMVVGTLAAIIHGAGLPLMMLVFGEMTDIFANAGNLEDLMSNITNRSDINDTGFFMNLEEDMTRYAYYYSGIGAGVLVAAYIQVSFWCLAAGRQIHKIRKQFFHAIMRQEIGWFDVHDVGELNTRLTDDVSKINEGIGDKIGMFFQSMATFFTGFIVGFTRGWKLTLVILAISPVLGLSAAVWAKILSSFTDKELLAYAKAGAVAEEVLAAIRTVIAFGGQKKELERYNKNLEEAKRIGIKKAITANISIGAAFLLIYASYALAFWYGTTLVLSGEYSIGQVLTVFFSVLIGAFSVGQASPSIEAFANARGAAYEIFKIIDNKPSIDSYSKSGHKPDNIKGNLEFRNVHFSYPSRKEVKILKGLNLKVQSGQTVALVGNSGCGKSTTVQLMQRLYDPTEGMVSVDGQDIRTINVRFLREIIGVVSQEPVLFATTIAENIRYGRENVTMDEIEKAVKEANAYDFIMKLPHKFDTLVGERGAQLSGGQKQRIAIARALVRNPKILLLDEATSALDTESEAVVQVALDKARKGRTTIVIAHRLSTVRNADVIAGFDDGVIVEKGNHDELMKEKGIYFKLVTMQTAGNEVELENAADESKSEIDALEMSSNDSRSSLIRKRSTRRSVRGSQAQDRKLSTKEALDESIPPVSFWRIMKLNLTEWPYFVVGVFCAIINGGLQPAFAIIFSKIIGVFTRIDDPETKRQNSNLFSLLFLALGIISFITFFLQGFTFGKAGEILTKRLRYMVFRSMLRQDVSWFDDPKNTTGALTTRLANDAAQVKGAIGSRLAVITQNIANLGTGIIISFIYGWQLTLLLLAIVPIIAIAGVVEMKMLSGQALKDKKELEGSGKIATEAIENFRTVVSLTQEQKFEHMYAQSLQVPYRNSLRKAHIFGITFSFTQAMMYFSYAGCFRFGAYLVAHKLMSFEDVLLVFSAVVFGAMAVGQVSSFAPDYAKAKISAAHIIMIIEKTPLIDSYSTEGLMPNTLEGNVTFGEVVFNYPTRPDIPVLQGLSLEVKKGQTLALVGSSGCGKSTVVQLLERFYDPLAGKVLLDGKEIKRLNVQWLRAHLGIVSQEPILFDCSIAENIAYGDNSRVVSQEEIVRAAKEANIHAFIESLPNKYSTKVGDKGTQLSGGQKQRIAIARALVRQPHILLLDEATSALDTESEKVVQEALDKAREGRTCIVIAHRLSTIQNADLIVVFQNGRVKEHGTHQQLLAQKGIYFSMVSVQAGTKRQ

In the case of `COc1cccc2c1C(=O)c1c(O)c3c(c(O)c1C2=O)C[C@@](O)(C(=O)CO)C[C@@H]3O[C@H]1C[C@H](N)[C@H](O)[C@H](C)O1` [doxorubicin, Doxorubicin], the “vectorial transport of doxorubicin by P-gp” value [1] is reported as “vectorial transport from the basolateral to the apical compartment”, the “cell viability in presence of doxorubicin” value [2] is reported as “significantly reduced” and the “cell viability in presence of doxorubicin” value [3] is reported as “significantly reduced”. The “cytotoxic effects within one hour” value [4] was “no cytotoxic effects”, the Vmax [5] was 19.4 ± 3.78 pmol/mg/min and the “present as cationic moiety” value [6] was 89%. The microsomal CLint at 3 min [7] was 0.5 ± 0.26 µL/min/mg, the Km [8] was 31.7 µM and the Km [9] was roughly 5 µM. For the same compound, the Vmax ([10]; MDCKII-OCT3, doxorubicin 0–100 µmol/L, 3 min, mean ± SD) was 12.9 ± 3.60 pmol/mg/min and the microsomal CLint at 3 min ([10]; human, mdck) was 0.99 ± 0.33 µL/min/mg.

From paper PMC8745601 (International Journal of Molecular Sciences, 2021)
